One experiment has as its system HeLa cells. Description: cells. The following applies: for viability at 500 µM: Homo sapiens, HeLa, 65 h; for HeLa Cells Alamar Blue: Supplementary Table 1. Summed up:
(§1)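 Viability by Alamar Blue (5 h) after ~65 h drug treatment; seeding density 2 × 10^4 cells/well in DMEM supplemented with 10% FCS and 2 mM L-Glutamine.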
In general terms: The colour change of resazurin is a common sign of viable cells or microbes.

Another experiment relates to A549 cells. Put plainly: Cytotoxicity against A549 cells, Alamar Blue. It counts as cell-based. The following applies: Supplementary Table 1, compound 0.5 mM, percentage of controls (n=1); for viability at 500 µM: Homo sapiens, A549, 65 h. Summed up:
as §1

Where [1] appears, read: read-out: HeLa Cells Alamar Blue.
Setting [2] is: compound 0.5 mM, percentage of controls, mean ± SD (n=3) or SE (n=2).

Each structure is given as a SMILES string. Read-outs that look alike come from different tables or passages of the source.

Results on 20 molecules are retold here after PMC3199943, “Screening the MayBridge Rule of 3 Fragment Library for Compounds That Interact with the Trypanosoma brucei myo-Inositol-3-Phosphate Synthase and/or Show Trypanocidal Activity” (Molecular Biology International, 2011).

Take `Nc1cccc(-c2cccnc2)c1` [compound 346, 3‐pyridin‐3‐ylaniline]: the viability at 500 µM with HeLa cells (setting [1]) came out at 73.9 ± 6.1%; with A549 cells, 98.5%.

In the case of `c1ccc(-c2cn3c(n2)SCC3)cc1` [compound 639, 6‐phenyl‐2,3‐dihydroimidazo[2,1‐b][1,3]thiazole], the “HeLa Cells Alamar Blue” value in the experiment on HeLa cells (setting [2]) was 61 ± 9.8 percentage of controls. In addition, the “A549 Cells Alamar Blue” value in the experiment with A549 cells is 109.1 percentage of controls.

Take `Cc1nc2ccc(N)cc2s1` [compound 302, 2‐methyl‐1,3‐benzothiazol‐6‐ylamine]: the viability at 500 µM in the experiment on HeLa cells (setting [1]) was determined as 71.9 ± 12.4%; in the experiment on A549 cells it was 62.3%.

With `O=C1CCOc2ccc(F)cc21` [compound 318, 6‐fluorochroman‐4‐one], the viability at 500 µM with HeLa cells (setting [1]) was 104 ± 16.4%; in the experiment with A549 cells, 99%.

Consider `OCc1nccn1Cc1ccccc1` [compound 526, (1‐benzyl‐1H‐imidazol‐2‐yl)methanol], for which the viability at 500 µM in the experiment on HeLa cells (setting [1]) came to 81 ± 13.3%; in the experiment on A549 cells, 58%.

`CCN(CC)CCc1ccccn1` [compound 443, N,N‐diethyl‐N‐[2‐(2‐pyridyl)ethyl]amine]: the viability at 500 µM in the experiment with HeLa cells (setting [1]) was determined as 90.9 ± 9.8%; in the experiment on A549 cells, 49.2%.

Consider `N#Cc1ccsc1N` [compound 68, 2‐aminothiophene‐3‐carbonitrile], for which the viability at 500 µM in the experiment with HeLa cells (setting [1]) came to 102 ± 3.1%; in the experiment on A549 cells, 136%.

As to `COC(=O)c1ccc2ncccc2c1` [compound 515, methyl quinoline‐6‐carboxylate], the results for the viability at 500 µM in the experiment on HeLa cells (setting [1]) and with A549 cells were 69.9 ± 8.1% and 67.8%, respectively.

For the molecule `O=C(O)Cc1ccc(Cl)c(Cl)c1` [compound 659, 2‐(3,4‐dichlorophenyl)acetic acid], the viability at 500 µM is 74 ± 17.1% in the experiment with HeLa cells (setting [1]) and 106% with A549 cells.

Turning to `Nc1ccccc1N1CCOCC1` [compound 436, 2‐morpholinoaniline], the viability at 500 µM in the experiment on HeLa cells (setting [1]) was 79.1 ± 5.8%; in the experiment with A549 cells it was 56.4%.

Turning to `NCc1cccc(CN2CCCCC2)c1` [compound 655, 3‐piperidin‐1‐ylmethyl benzylamine], the viability at 500 µM amounted to 73.7 ± 15.9% with HeLa cells (setting [1]) and 126% with A549 cells.

Turning to `Nc1ncccc1OCc1ccccc1` [compound 624, 3‐(benzyloxy)pyridin‐2‐amine], the viability at 500 µM in the experiment on HeLa cells (read-out: HeLa Cells Alamar Blue, Supplementary Table 1, compound 0.5 mM, percentage of controls, mean ± SD (n=3) or SE (n=2)) came to 72.9 ± 14.8%; with A549 cells, 82.7%.

On to `N#CC1(O)CN2CCC1CC2` (stereo not shown) [compound 208, 3‐hydroxyquinuclidine‐3‐carbonitrile], for which the values for the viability at 500 µM with HeLa cells (setting [1]) and in the experiment with A549 cells were 99.4 ± 11.2% and 61.8%, respectively.

In the case of `Cn1c(C(=O)O)cc2sccc21` [compound 464, 4‐methyl‐4H‐thieno[3,2‐b]pyrrole‐5‐carboxylic acid], the “HeLa Cells Alamar Blue” value with HeLa cells (setting [2]) is 93.5 ± 4.2 percentage of controls. The “A549 Cells Alamar Blue” value in the experiment on A549 cells was 89.4 percentage of controls.

As to `O=C1CCC(C(F)(F)F)CC1` [compound 317, 4‐(trifluoromethyl)cyclohexan‐1‐one], the viability at 500 µM with HeLa cells (setting [1]) came to 111 ± 7.2%; with A549 cells, 90.5%.

`O=C(O)c1ccc(-c2ccccc2)s1` [compound 649, 5‐phenylthiophene‐2‐carboxylic acid]: the viability at 500 µM in the experiment on HeLa cells (setting [1]) turned out to be 122 ± 18.7%; with A549 cells, 141%.

Regarding `Cc1nn(-c2ccccc2)c(C)c1CO` [compound 636, (3,5‐dimethyl‐1‐phenyl‐1H‐pyrazol‐4‐yl)methanol], the “HeLa Cells Alamar Blue” value with HeLa cells (setting [2]) is listed as 73 ± 13.4 percentage of controls. Moreover, the “A549 Cells Alamar Blue” value in the experiment with A549 cells is listed as 94.9 percentage of controls.

For `OCc1ccc(Cn2ccnc2)cc1` [compound 528, [4‐(1H‐imidazol‐1‐ylmethyl)phenyl]methanol], the “HeLa Cells Alamar Blue” value in the experiment with HeLa cells (setting [2]) is 90.8 ± 4.5 percentage of controls. The “A549 Cells Alamar Blue” value with A549 cells is recorded as 81.2 percentage of controls.

For `NCc1cc(Cl)cc(Cl)c1` [compound 405, 3,5‐dichlorobenzylamine], the viability at 500 µM with HeLa cells (setting [1]) is 77.7 ± 13.9%; in the experiment on A549 cells, 84.1%.

With `O=C(O)c1ccccn1` [compound 58, 2‐pyridinecarboxylic acid], the values for the viability at 500 µM in the experiment on HeLa cells (setting [1]) and in the experiment on A549 cells were 87.3 ± 6.1% and 97.9%, respectively.
